Key:
[1] = target: T1, IL-17A(FLAG-Tagged): IL-17RA(His-Tagged) (Homo sapiens, UniProt Q16552, K93Q); assay: IL-17A(FLAG-Tagged): IL-17RA(His-Tagged) Binding Disruption Eu-HTRF Assay, Protocol 1; conditions: Protocol 1, FLAG tagged IL-17A 2.5 nM; simple average if tested more than once
Outline: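 IC50 came from a one-site competition fit of the acceptor/donor (665/620 nm) HTRF ratio. His-tagged IL-17RA, Eu-anti-FLAG and D2-anti-His were added after a 1 h rt compound preincubation with FLAG-tagged IL-17A dimer in PBS/0.01% Triton X-100, followed by 2 h at rt before reading.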

[2] = target: T1, IL-17A(FLAG-Tagged): IL-17RA(His-Tagged); assay: IL-17A(FLAG-Tagged): IL-17RA(His-Tagged) Binding Disruption Eu-HTRF Assay, Protocol 2; conditions: Protocol 2, FLAG tagged IL-17A 1 nM; simple average if tested more than once
Text: An antibody directed against the FLAG tag of IL-17A (SEQ ID NO: 1) is labeled with the HTRF donor chromophore (Europium-cryptate). IL-17A is present as a dimer that is “locked into” this quaternary structure due to the formation of loop-spanning […] disulfide bridges. The construct of IL-17RA used in the assay excludes the […] portion of the receptor and is fused to a C-terminal 10×His tag (SEQ ID NO:2). An antibody directed against the His tag of the IL-17RA chimera is labeled with the HTRF acceptor chromophore (“D2”). The fluorescence-resonance energy transfer (FRET) depends on the vicinity of the donor chromophore to the acceptor, and interruption of the binding between the IL-17A and IL-17RA causes the reduction/loss of FRET. Therefore, this assay allows to evaluate the compound effect on the binding IL-17A and IL-17RA by monitoring the fluorescence intensity of donor vs acceptor. The assay was run using either Protocol 1 or Protocol 2 as described below.
Protocol 2. 40 nl of 2-fold serial diluted compound solution for total 22 dilution points is added into each well of a 1536-well, white, low-volume, non-binding plate (Greiner #782904), then 2 μl of FLAG tagged IL-17A at 2× final concentration (1 nM) in solution of PBS+0.01% Triton-X100 is added to each well. The assay plate is briefly centrifuged then incubated for 1 h at rt. A mixed solution is prepared containing 2×5 nM 10HIS×IL-17RA, 2×2.5 nM Eu-anti-FLAG (CISBIO), 2×5 nM D2-anti-HIS (CISBIO) in PBS+0.01% Triton-X100+200 mM Potassium Fluoride (Sigma 60238) and 2 μl of mix is added to each well of the assay plate. The plate is briefly centrifuged then incubated for 2 h at rt. The HTRF intensities at the wavelength of donor (615 nm) and acceptor (665 nm) are measured using BMG Pherastar. The ratio between intensities at two wavelengths is calculated and plotted against the compound concentration and the data is fitted to a one-site competition model to yield IC50 of the compound.

[3] = test system: IL-17A-induced G-CSF production in human normal keratinocyte (NHK); assay: NHK Assay: IL-17A-induced G-CSF production in human normal keratinocyte; type: cell-based; conditions: Homo sapiens, Keratinocyte, 24 h, IL-17A 5 ng/mL, simple average if tested more than once
Outline: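 Stimulus rhIL-17A 5 ng/mL final, premixed 1 h rt with compound; adult NHK, 5% FBS, 0.2% DMSO. Viability by CellTiter-Glo vs DMSO.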

[4] = test system: patients with moderate-to-severe HS; conditions: seven of nine patients with moderate-to-severe HS, open-label pilot-trial; cited from earlier work

T1 sequence (Q16552 with tags, fused parts or gaps K93Q): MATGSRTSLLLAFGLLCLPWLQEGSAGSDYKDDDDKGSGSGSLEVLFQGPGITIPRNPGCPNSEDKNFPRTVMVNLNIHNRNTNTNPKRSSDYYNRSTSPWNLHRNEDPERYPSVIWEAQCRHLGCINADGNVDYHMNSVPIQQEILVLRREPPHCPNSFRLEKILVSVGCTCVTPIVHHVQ

| IC50 [1] | IC50 [2] | Compound | IC50 [3] | patients achieved HiSCR [4] |
| --- | --- | --- | --- | --- |
| < 50 nM | < 50 nM | CC(C)n1ncc(F)c1C(=O)N[C@@H](COC(C)(C)C(F)(F)F)c1nc2cc(CN3CC(C(F)(F)F)NC3=O)ccc2[nH]1 (single isomer, unassigned) [Example 32, 4-Fluoro-1-isopropyl-N—((R)-1-(5-(((S*)-2-oxo-4-(trifluoromethyl)imidazolidin-1-yl)methyl)-1H-benzo[d]imidazol-2-yl)-2-((1,1,1-trifluoro-2-methylpropan-2-yl)oxy)ethyl)-1H-pyrazole-5-carboxamide] | 50 to 100 nM |  |
| < 50 nM | < 50 nM | COC[C@H](c1ccc2[nH]c(C(COC(C)(C)C(F)(F)F)NC(=O)c3ncnn3C(C)C)nc2c1)N1CC(F)(F)CNC1=O (single isomer, unassigned) [Example 52, N—((R*)-1-(5-((S)-1-(5,5-Difluoro-2-oxotetrahydropyrimidin-1(2H)-yl)-2-methoxyethyl)-1H-benzo[d]imidazol-2-yl)-2-((1,1,1-trifluoro-2-methylpropan-2-yl)oxy)ethyl)-1-isopropyl-1H-1,2,4-triazole-5-carboxamide] | < 50 nM |  |
| > 100 nM | > 100 nM | CC(C)n1nccc1C(=O)NC(c1nc2nc([C@@H](C3CC3)N3CC(F)(F)CNC3=O)ccc2[nH]1)[C@@H](C)O[C@H](C)C(F)(F)F (single isomer, unassigned) [Example 75, N-((1R*,2R)-1-(5-((R)-Cyclopropyl(5,5-difluoro-2-oxotetrahydropyrimidin-1(2H)-yl)methyl)-1H-imidazo[4,5-b]pyridin-2-yl)-2-(((R)-1,1,1-trifluoropropan-2-yl)oxy)propyl)-1-isopropyl-1H-pyrazole-5-carboxamide] | < 50 nM |  |
| < 50 nM | < 50 nM | Cc1nonc1C(=O)N[C@@H](COC(C)(C)C(F)(F)F)c1nc2cc([C@@H](C3CC3)N3C[C@@H](C(C)C)NC3=O)ccc2[nH]1 [Example 83, N—((R)-1-(5-((R)-Cyclopropyl((R)-4-isopropyl-2-oxoimidazolidin-1-yl)methyl)-1H-benzo[d]imidazol-2-yl)-2-((1,1,1-trifluoro-2-methylpropan-2-yl)oxy)ethyl)-4-methyl-1,2,5-oxadiazole-3-carboxamide] | < 50 nM |  |
|  |  | secukinumab |  | 78% |
